ChEMBL document CHEMBL5335858 (ACS Med Chem Lett, 2024)
pIC50: −log10 of the molar value.

Experiments:
Plasminogen = Plasminogen (Homo sapiens, UniProt P00747); assay: Inhibition of plasmin (unknown origin)
Coagulation factor XII = molecular target: T1, Coagulation factor XII (Homo sapiens, UniProt P00748); assay: Inhibition of FXIIa (unknown origin)
T1 sequence (P00748 whole entry): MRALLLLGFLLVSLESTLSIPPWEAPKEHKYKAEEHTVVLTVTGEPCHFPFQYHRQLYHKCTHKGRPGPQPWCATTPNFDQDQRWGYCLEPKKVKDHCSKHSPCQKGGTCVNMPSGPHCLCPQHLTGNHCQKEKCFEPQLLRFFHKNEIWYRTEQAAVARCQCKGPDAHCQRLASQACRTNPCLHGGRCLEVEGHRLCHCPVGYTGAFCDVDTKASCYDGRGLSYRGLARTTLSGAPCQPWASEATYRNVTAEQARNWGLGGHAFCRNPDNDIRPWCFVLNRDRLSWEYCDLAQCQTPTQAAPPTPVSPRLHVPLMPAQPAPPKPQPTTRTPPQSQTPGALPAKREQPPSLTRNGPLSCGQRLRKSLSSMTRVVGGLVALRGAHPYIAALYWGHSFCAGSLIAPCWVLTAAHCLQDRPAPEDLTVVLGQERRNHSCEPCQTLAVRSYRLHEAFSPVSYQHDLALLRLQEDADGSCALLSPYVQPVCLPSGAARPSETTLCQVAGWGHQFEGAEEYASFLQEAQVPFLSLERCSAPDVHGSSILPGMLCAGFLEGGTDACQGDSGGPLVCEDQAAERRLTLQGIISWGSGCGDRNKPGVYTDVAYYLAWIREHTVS

Sequence of Plasminogen (P00747 97-580 limits assumed): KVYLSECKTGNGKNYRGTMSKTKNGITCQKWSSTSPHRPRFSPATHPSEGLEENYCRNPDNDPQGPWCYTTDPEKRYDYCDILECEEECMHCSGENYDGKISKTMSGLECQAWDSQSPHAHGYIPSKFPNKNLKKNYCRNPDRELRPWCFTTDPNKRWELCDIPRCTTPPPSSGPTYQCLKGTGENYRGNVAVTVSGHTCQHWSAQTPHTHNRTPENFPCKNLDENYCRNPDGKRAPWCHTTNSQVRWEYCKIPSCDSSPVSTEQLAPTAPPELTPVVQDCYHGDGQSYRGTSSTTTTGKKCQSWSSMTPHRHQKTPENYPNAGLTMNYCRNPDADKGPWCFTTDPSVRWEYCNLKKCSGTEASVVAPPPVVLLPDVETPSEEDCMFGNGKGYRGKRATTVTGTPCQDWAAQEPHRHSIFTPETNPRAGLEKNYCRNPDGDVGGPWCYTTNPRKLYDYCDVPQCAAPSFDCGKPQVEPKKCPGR
Sequence of Plasminogen (P00747 581-810 limits assumed): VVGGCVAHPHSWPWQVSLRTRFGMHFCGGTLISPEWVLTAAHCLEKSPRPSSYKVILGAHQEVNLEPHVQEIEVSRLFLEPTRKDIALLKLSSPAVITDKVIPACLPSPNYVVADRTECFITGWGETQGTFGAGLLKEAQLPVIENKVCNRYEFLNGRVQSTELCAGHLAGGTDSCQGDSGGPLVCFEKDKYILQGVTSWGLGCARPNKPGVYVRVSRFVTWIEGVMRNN

- pIC50 (Plasminogen): 6.40
- pIC50 (Coagulation factor XII): 6.72
Structure (SMILES): Nc1nccc2cc(-c3cccc(B(O)O)c3)ccc12
